Activity calls are given as the source filed them. No cut-off for these calls is given here.
Key:
[1] = Solubility of the compound in DMSO; assay type: physicochemical
[2] = test system: MC3T3-E1; assay: Induction of osteoblast differentiation in […] MC3T3-E1 cells assessed as increase in osteocalcin mRNA expression at 5 uM after 4 days by RT-PCR method; assay type: functional, cell-based
[3] = test system: C3H 10T1/2; assay: Induction of osteoblast differentiation in mouse C3H10T1/2 cells assessed as increase in ALP mRNA expression at 5 uM after 4 days by RT-PCR method; assay type: functional, cell-based
[4] = test system: MC3T3-E1; assay: Induction of osteoblast differentiation in […] MC3T3-E1 cells assessed as increase in Runx2 mRNA expression at 5 uM after 4 days by RT-PCR method; assay type: functional, cell-based
[5] = test system: MC3T3-E1; assay: Induction of mineralization in […] MC3T3-E1 cells at 5 uM after 14 days by alizarin red S staining based assay; assay type: functional, cell-based
[6] = test system: C3H 10T1/2; assay: Induction of osteoblast differentiation in mouse C3H10T1/2 cells assessed as increase in Dlx5 mRNA expression at 5 uM after 4 days by RT-PCR method; assay type: functional, cell-based
[7] = test system: MC3T3-E1; assay: Induction of osteoblast differentiation in […] MC3T3-E1 cells assessed as increase in Dlx5 mRNA expression at 5 uM after 4 days by RT-PCR method; assay type: functional, cell-based
[8] = test system: MC3T3-E1; assay: Induction of osteoblast differentiation in […] MC3T3-E1 cells assessed as increase in ALP mRNA expression at 5 uM after 4 days by RT-PCR method; assay type: functional, cell-based
[9] = test system: C3H 10T1/2; assay: Induction of osteoblast differentiation in mouse C3H10T1/2 cells assessed as increase in Runx2 mRNA expression at 5 uM after 4 days by RT-PCR method; assay type: functional, cell-based
[10] = test system: C3H 10T1/2; assay: Induction of osteoblast differentiation in mouse C3H10T1/2 cells assessed as increase in osteocalcin mRNA expression at 5 uM after 4 days by RT-PCR method; assay type: functional, cell-based
[11] = test system: C3H 10T1/2; assay: Cytotoxicity against mouse C3H10T1/2 cells assessed as reduction in cell viability up to 5 uM after 48 hrs by MTT assay; assay type: cell-based; details: c3h 10t1/2, 48 h
[12] = test system: MC3T3-E1; assay: Induction of osteoblast differentiation in […] MC3T3-E1 cells assessed as increase in ALP activity at 5 uM after 4 days using BCIP/NBT liquid substrate; assay type: functional, cell-based

| solubility [1] | Compound | Activity [2] | Activity [3] | Activity [4] | Activity [5] | Activity [6] | Activity [7] | Activity [8] | Activity [9] | Activity [10] | Activity [11] | Activity [12] |
| --- | --- | --- | --- | --- | --- | --- | --- | --- | --- | --- | --- | --- |
| Soluble | COc1cc(O)cc([C@@H]2CC(=O)O[C@H]2C)c1 [CURCULACTONE B] | Active | Active | Active | Active | Active | Active | Active | Active | Active | Non-Toxic | Active |
| Soluble | COc1cc([C@H]2CC(=O)O[C@H]2C)ccc1O [CURCULACTONE A] | Active | Active | Active | Active | Active | Active | Active | Active | Active | Non-Toxic | Active |
